In patent US20050288307A1, “Anti-viral compounds” (priority 2002, published 2005):
Read-outs that look alike come from different tables or passages of the source.

Tests used:
[1] = biological target: T1, CDK2/Cyclin E (Homo sapiens, UniProt P24941); test: CDK2/cyclin E kinase assay (GST-Rb phosphorylation); assay type: biochemical; settings: read-out: Average IC50 CDK2 cyclin E1;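 further: enzyme source: His-tagged CDK2/cyclin E complex co-expressed recombinantly in Sf9 insect cells using baculovirus constructs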
T1 construct: His; made in house; host or cells: Sf9 insect cells (baculovirus)
Protocol: (§3) His-tagged CDK2/Cyclin E and CDK1/Cyclin B may be co-expressed and PKCα singularly expressed in Sf 9 insect cells infected with the appropriate baculovirus constructs. The cells are harvested two days after infection by low speed centrifugation and the proteins purified from the insect cell pellets by Metal-chelate chromatography. Briefly, the insect cell pellet is lysed in Buffer A (10 mM Tris-HCl, pH 8.0, 150 mM NaCl, 0.02% NP40 and 5 mM β-marcaptoethanol, 1 mM NaF. 1 mM Na3VO4 and Protease Inhibitors Coctail (Sigma) containing AEBSF, pepstatin A, E 64, bestatin, leupeptin) by sonication. The soluble fraction is cleared by centrifugation and loaded onto Ni-NTA-Agarose (Quiagen). Non bound proteins were washed off with 300 mM NaCl, 5-15 mM Imidazole in Buffer A and the bound proteins eluted with 250 mM Imidazole in Buffer A. The purified proteins are extensively dialyzed against Storage buffer (20 mM HEPES pH 7.4, 50 mM NaCl, 2 mM DTT, 1 mM EDTA, 1 mM EGTA, 0.02% NP40, 10% v/v Glycerol) aliquoted and stored at −70° C.

[2] = biological target: CDK2/cyclin A (Homo sapiens, UniProt P24941); test: CDK2/cyclin A kinase assay; assay type: biochemical; settings: Table 3; read-out: Average IC50 CDK2 cyclin A2;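 further: Read-out is incorporated radioactivity retained on P81 filter plates and quantified by scintillation counting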
Protocol: Reactions were stopped on ice, followed by filtration through p81 filterplates (Whatman Polyfiltronics, Kent, UK). After washing 3 times with 75 mM orthophosphoric acid, plates were dried, scintillant added and incorporated radioactivity measured in a scintillation counter (TopCount, Packard Instruments, Pangboume, Berks, UK).

[3] = biological target: CDK4/Cyclin D1 (Homo sapiens, UniProt P11802); test: CDK4/cyclin D1 kinase assay (GST-Rb phosphorylation); assay type: biochemical; settings: read-out: Average IC50 CDK4 cyclin D1
[4] = biological target: CDK7/cyclin H (Homo sapiens, UniProt P50613); test: CDK7 assay (CTD peptide substrate); assay type: biochemical; settings: read-out: Average IC50 CDK7 cyclin H
Protocol: CTD peptide substrate (biotinyl-Ahx-(Tyr-Ser-Pro-Thr-Ser-Pro-Ser)4-NH2; 1-2 mg/mL) and recombinant human CDK7/cyclin H, CDK9/cyclin T1, or CDK9/cyclin K (0.5-2 μg) were incubated for 45 min at 30° C. in the presence of varying amounts of test compound in 20 mM MOPS pH 7.2, 25 mM β-glycerophosphate, 5 mM EGTA, 1 mM DTT, 1 mM sodium vanadate, 15 mM MgCl2, and 100 μM ATP (containing a trace amount of ^32PγATP) in a total volume of 25 μL in a 96-well microtiter plate. The reaction was stopped by placing the plate on ice for 2 min. Avidin (50 μg) was added to each well, and the plate was incubated at room temp for 30 min. The samples were transferred to a 96-well P81 filter plate, and washed (4×200 μL per well) with 75 mM phosphoric acid. Microscint 40 scintillation liquid (50 μL) was added to each well, and the amount of ^32P incorporation for each sample was measured using a Packard Topcount microplate scintillation counter.

[5] = biological target: CDK9/cyclin T1 (Homo sapiens, UniProt P50750); test: CDK9 assay (CTD peptide substrate); assay type: biochemical; settings: read-out: Average IC50 CDK9 cyclin T1
In short: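 Recombinant human CDK7/cyclin H or CDK9/cyclin T1 with biotinylated CTD peptide, 45 min at 30 °C, pH 7.2 MOPS buffer, 15 mM MgCl2, 100 μM ATP with trace [γ-32P]ATP. Avidin capture on P81 filters, phosphoric acid washes, 32P incorporation by scintillation counting.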

[6] = biological target: Akt/PKB (Homo sapiens, UniProt P31749); test: Kinase specificity panel: Akt/PKB; assay type: biochemical; settings: Table 2
[7] = system: CaMKII; assay type: biochemical; settings: Table 2
[8] = biological target: ERK2 (Homo sapiens, UniProt P28482); test: Kinase specificity panel: ERK2; assay type: biochemical; settings: Table 2
[9] = biological target: T2, PKC (Homo sapiens, UniProt P17252); test: PKC kinase assay (Histone 3 phosphorylation); assay type: biochemical; settings: Table 2
T2 construct: 6xHis (C); made in house; host or cells: Sf9 insect cells (baculovirus)
Protocol: PKCα kinase activity may be measured by the incorporation of radio-labeled phosphate in Histone 3, as described. The reaction mixture (total volume 65 μl) consist of 50 mM Tris-HCl, 1 mM Calcium acetate, 3 mM DTT, 0.03 mg/ml Phosphatidylserine, 2.4 μg/ml PMA, 0.04% NP40, 12 mM Mg/Cl, purified PKCα-100 ng, Histone 3, 0.2 mg/ml, 100 μM ATP, 0.2 μCi [γ-^32P]-ATP. The reaction is carried over 15 min at 37° C. in microplate shaker and is stopped by adding 10 μl 75 mM orthophosphoric acid and placing the plate on ice. 50 μl of the reaction mixture is transferred onto P81 filterplate and after washing off the free radioactive phosphate (3 times with 200 μl 75 mM orthophosphoric acid per well) 50 μl of scintillation liquid (Microscint 40) were added to each well and the radioactivity is measured on Scintillation counter (Topcount, HP).

[10] = biological target: SAPK2a (Homo sapiens, UniProt Q16539); test: Kinase specificity panel: SAPK2a; assay type: biochemical; settings: Table 2
[11] = biological target: CDK1/Cyclin B (Homo sapiens, UniProt P06493); test: CDK1/cyclin B kinase assay (GST-Rb phosphorylation);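 further: Enzyme: His-tagged CDK1/Cyclin B co-expressed in baculovirus-infected Sf9 insect cells, purified via metal-chelate chromatography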
Protocol: as §3

[12] = system: HIV-1RoJo/PBMC; test: Anti-HIV efficacy in fresh human PBMCs, strain RoJo; assay type: cell-based; settings: HIV-1RoJo/PBMC; for IC50: Human immunodeficiency virus 1, read-out: IC50 (concentration inhibiting virus replication by 50%); for IC90: Human immunodeficiency virus 1, read-out: IC90 (concentration inhibiting virus replication by 90%)
Protocol: (§1) Fresh PBMCs, seronegative for HIV and HBV, were isolated from screened donors (Interstate Blood Bank, Inc. Memphis, Tenn.). Cells were pelleted/washed 2-3 times by low speed centrifugation and re-suspension in PBS to remove contaminating platelets. […] Banded PBMCs were gently aspirated from the resulting interface and subsequently washed with PBS by low speed centrifugation. […] The cells were allowed to incubate at 37° C. […] IL-2 is included in the culture medium to maintain the cell division initiated by the PHA mitogenic stimulation. PBMCs were maintained in this with bi-weekly medium changes until used in the assay protocol. Cells were kept in culture for a maximum of two weeks before being deemed too old for use in assays and discarded. Monocytes were depleted from the culture as the result of adherence to the tissue culture flask.
(§2) Tritiated thymidine triphosphate (^3H-TTP, 80 Ci/mmol, NEN) was received in 1:1 dH2O:Ethanol at 1 mCi/mL. Poly rA:oligo dT template:primer (Pharmacia) was prepared as a stock solution, followed by aliquoting and storage at −20° C. The RT reaction buffer was prepared fresh on a daily basis. The final reaction mixture was prepared by combining ^3H-TTP, dH2O, poly rA:oligo dT stock and reaction buffer. This reaction mixture was placed in a round bottom microtiter plate and supernatant containing virus was added and mixed. The plate was incubated at 37° C. for 60 minutes. Following incubation, the reaction volume was spotted onto DE81 filter-mats (Wallac), in a sodium phosphate buffer or 2×SSC (Life Technologies). Next they were washed in distilled water, in 70% ethanol, and then dried. Incorporated radioactivity (counts per minute, CPM) was quantified using standard liquid scintillation techniques.

[13] = system: HIV-1WeJo/PBMC; test: Anti-HIV efficacy in fresh human PBMCs, strain WeJo; assay type: cell-based; settings: HIV-1WeJo/PBMC
Protocol: as §1, §2

[14] = system: HIV-1; test: Anti-viral cell-based assays; settings: result in words
[15] = Compound cytotoxicity in PBMC assay plates (MTS cell viability); settings: human, TC50 (concentration decreasing cell viability by 50%)

Sequence of CDK1/Cyclin B (P06493 whole entry, species assumed): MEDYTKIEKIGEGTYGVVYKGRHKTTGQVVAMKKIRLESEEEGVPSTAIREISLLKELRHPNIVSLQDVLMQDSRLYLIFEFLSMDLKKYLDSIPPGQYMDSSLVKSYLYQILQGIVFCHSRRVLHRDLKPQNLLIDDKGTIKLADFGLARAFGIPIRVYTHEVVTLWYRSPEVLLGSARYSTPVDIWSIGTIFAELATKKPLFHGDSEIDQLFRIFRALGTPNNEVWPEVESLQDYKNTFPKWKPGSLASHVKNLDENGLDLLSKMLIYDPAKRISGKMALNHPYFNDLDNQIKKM
Sequence of CDK1/Cyclin B (P14635 whole entry partner, species assumed): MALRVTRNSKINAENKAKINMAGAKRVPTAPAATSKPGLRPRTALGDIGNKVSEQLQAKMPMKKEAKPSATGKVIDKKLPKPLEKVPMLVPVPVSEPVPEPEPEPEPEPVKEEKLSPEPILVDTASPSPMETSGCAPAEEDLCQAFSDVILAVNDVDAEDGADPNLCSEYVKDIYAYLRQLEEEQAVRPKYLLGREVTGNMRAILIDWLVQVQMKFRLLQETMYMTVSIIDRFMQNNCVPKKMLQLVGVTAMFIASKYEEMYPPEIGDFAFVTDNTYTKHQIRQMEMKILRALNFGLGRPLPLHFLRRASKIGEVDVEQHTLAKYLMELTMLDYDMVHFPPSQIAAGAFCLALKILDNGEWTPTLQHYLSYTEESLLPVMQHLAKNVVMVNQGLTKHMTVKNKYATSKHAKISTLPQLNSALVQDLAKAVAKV
Sequence of CDK9/cyclin T1 (P50750 whole entry): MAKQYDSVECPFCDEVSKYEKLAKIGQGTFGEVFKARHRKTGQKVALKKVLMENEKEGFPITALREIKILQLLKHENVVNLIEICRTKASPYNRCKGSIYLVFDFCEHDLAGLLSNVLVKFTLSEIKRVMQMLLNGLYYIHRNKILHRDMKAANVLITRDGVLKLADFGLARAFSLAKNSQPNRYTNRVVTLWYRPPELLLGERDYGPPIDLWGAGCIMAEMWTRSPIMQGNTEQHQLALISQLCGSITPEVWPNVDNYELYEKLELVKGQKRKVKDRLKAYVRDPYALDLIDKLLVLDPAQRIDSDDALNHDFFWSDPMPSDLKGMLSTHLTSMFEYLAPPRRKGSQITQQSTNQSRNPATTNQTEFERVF
Sequence of CDK9/cyclin T1 (O60563 whole entry partner): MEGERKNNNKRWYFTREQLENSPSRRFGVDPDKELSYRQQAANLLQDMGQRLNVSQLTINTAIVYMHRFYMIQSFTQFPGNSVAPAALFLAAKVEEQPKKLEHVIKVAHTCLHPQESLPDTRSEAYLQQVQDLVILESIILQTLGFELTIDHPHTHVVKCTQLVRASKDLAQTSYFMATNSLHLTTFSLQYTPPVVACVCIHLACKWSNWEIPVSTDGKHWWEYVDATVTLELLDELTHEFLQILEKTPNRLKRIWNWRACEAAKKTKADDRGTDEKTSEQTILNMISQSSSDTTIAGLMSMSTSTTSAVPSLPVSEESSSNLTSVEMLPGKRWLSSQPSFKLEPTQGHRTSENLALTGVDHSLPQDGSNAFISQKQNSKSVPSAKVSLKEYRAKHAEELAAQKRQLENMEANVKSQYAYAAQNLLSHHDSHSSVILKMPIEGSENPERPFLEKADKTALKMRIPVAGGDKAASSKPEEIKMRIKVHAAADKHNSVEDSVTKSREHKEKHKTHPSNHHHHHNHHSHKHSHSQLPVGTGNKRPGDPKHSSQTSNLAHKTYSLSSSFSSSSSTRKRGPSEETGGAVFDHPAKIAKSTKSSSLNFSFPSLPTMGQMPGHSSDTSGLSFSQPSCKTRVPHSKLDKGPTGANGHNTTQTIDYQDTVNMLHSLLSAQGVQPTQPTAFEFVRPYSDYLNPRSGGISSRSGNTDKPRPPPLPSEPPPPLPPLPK
Sequence of SAPK2a (Q16539 whole entry, species assumed): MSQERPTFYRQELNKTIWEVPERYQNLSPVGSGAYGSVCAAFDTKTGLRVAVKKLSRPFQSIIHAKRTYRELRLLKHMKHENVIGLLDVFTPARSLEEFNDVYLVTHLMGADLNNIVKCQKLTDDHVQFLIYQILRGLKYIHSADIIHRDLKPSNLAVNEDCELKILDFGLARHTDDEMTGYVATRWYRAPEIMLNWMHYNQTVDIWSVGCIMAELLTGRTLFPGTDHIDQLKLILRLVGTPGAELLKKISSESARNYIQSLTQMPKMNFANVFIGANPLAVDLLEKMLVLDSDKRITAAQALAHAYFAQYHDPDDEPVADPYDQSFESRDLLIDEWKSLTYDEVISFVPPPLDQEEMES
Sequence of Akt/PKB (P31749 whole entry): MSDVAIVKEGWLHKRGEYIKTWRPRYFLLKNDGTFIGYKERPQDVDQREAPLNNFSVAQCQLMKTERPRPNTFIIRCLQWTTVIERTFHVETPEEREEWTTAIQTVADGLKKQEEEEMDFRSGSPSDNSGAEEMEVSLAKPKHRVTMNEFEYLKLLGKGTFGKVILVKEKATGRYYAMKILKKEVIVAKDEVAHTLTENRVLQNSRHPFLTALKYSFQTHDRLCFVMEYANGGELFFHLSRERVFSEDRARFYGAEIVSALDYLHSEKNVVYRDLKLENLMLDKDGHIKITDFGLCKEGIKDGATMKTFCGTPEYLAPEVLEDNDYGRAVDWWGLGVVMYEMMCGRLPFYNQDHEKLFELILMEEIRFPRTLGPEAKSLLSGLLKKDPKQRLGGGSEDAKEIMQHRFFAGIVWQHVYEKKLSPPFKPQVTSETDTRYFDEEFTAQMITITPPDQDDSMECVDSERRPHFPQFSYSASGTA
Sequence of CDK4/Cyclin D1 (P11802 whole entry, species assumed): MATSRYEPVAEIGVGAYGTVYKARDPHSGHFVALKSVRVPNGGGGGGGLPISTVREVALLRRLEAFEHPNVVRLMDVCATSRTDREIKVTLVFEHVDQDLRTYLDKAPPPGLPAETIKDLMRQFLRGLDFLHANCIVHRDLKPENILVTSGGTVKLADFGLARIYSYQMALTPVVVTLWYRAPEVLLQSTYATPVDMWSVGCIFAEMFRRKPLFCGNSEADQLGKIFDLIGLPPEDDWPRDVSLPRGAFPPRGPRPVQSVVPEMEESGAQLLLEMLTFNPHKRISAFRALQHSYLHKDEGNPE
Sequence of CDK4/Cyclin D1 (P24385 whole entry partner, species assumed): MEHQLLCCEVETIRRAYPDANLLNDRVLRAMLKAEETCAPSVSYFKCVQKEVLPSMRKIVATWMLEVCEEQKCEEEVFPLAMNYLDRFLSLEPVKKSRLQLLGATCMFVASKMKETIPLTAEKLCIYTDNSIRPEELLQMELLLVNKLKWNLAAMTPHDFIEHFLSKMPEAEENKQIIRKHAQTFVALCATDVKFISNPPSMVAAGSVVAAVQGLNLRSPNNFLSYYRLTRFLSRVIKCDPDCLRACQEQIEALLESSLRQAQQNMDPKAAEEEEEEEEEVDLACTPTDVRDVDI
Sequence of CDK7/cyclin H (P50613 whole entry): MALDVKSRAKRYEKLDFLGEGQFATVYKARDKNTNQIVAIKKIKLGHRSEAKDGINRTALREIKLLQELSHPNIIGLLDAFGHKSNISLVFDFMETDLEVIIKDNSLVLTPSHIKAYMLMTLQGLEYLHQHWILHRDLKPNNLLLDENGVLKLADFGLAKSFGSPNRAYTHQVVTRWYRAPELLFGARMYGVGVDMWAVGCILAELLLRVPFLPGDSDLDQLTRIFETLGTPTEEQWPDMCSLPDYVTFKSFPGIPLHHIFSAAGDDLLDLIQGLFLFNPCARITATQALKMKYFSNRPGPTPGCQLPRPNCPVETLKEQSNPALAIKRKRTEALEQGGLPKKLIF
Sequence of CDK7/cyclin H (P51946 whole entry partner): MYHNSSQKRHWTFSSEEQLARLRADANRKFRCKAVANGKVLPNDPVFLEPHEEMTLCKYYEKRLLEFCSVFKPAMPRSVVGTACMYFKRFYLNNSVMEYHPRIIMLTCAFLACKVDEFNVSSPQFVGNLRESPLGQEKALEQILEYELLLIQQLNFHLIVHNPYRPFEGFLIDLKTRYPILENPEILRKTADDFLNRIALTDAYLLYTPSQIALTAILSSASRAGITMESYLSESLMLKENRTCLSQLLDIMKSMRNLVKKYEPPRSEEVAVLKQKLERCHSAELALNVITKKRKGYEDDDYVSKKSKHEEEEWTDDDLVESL

| SMILES | IC50 ([1]; Table 2) [µM] | IC50 [2] [µM] | IC50 ([3]; Table 2) [µM] | IC50 ([4]; Table 2) [µM] | IC50 [6] [µM] | IC50 [7] [µM] | IC50 [8] [µM] | IC50 [9] [µM] | IC50 [10] [µM] | IC50 [11] [µM] | IC50 ([4]; Table 3) [µM] | IC50 ([5]; Table 3) [µM] | IC50 [12] [µM] | IC90 [12] [µM] | anti-viral effectiveness as demonstrated by cell-based assays [14] | CC50 at 7 days ([15]; HIV-1RoJo/PBMC) [µM] | IC50 ([1]; Table 3) [µM] | further results |
| --- | --- | --- | --- | --- | --- | --- | --- | --- | --- | --- | --- | --- | --- | --- | --- | --- | --- | --- |
| Cc1nc(N)sc1-c1ccnc(Nc2ccc(I)c([N+](=O)[O-])c2)n1 [Compound 117, [4-(2-Amino-4-methyl-thiazol-5-yl)-pyrimidin-2-yl]-(4-iodo-3-nitro-phenyl)-amine] | 0.28 | 1.7 | 1.4 | 0.36 | 70 | > 100 | > 100 | > 100 | > 100 | 1.7 |  |  |  |  |  |  |  | IC50 ([5]; Table 2): 0.055 µM |
| Cc1nc(C)c(-c2ccnc(Nc3ccc(C(F)(F)F)cc3)n2)s1 [Compound 15, [4-(2,4-Dimethyl-thiazol-5-yl)-pyrimidin-2-yl]-(4-trifluoromethyl-phenyl)-amine] |  |  |  | > 100 | > 50 | > 50 | > 50 | > 50 | > 50 | 34 | > 100 |  |  |  |  |  |  |  |
| COc1ccc(Nc2nccc(-c3sc(C)nc3C)n2)cc1 [Compound 26, [4-(2,4-Dimethyl-thiazol-5-yl)-pyrimidin-2-yl]-(4-methoxy-phenyl)-amine] |  |  | 2.4 |  | > 50 | > 50 | > 50 | > 50 | 45 | 9 |  |  |  |  |  |  |  |  |
| Cc1nc(C)c(-c2ccnc(Nc3cccc([N+](=O)[O-])c3)n2)s1 [Compound 5, [4-(2,4-Dimethyl-thiazol-5-yl)-pyrimidin-2-yl]-(3-nitro-phenyl)-amine] |  |  |  | 13 | > 50 | > 50 | 40 | 35 | 40 | 17 |  |  |  |  |  |  |  |  |
| Cc1nc(C)c(-c2ccnc(Nc3ccc(N(C)C)c(Cl)c3)n2)s1 [Compound 128, 2-Chloro-N^4-[4-(2,4-dimethyl-thiazol-5-yl)-pyrimidin-2-yl]-N^1,N^1-dimethyl-benzene-1,4-diamine] |  |  |  |  |  |  |  |  |  |  | 6.3 | 0.45 | 0.74 | 2.7 | particularly effective anti-viral agents | 4.3 |  | IC50 ([13]; Human immunodeficiency virus 1, read-out: IC50 (concentration inhibiting virus replication by 50%)): 0.86 µM; IC90 ([13]; Human immunodeficiency virus 1, read-out: IC90 (concentration inhibiting virus replication by 90%)): 2 µM; CC50 at 7 days ([15]; HIV-1WeJo/PBMC): > 100 µM |
| Cc1nc(C)c(-c2ccnc(Nc3cccc(C#N)c3)n2)s1 [Compound 36, 3-[4-(2,4-Dimethyl-thiazol-5-yl)-pyrimidin-2-ylamino]-benzonitrile] | 0.39 | 0.16 | 2.9 | 1.7 | > 50 | > 50 | > 50 | > 50 | > 50 | 2.5 |  |  |  |  |  |  | 0.39 | IC50 ([5]; Table 2): 1 µM |
| Cc1nc(C)c(-c2ccnc(Nc3ccc(O)cc3)n2)s1 [Compound 28, 4-[4-(2,4-Dimethyl-thiazol-5-yl)-pyrimidin-2-ylamino]-phenol] |  |  |  |  |  |  |  |  |  | 1.8 | 2.4 | 0.46 | 0.28 | 21 | particularly effective anti-viral agents | 22 | 0.28 | IC50 ([3]; Table 3): 0.6 µM; TI (therapeutic index: TC50/IC50) [12]: 80 |
| CNc1nc(C)c(-c2ccnc(Nc3cccc(O)c3)n2)s1 [Compound 70, 3-[4-(4-Methyl-2-methylamino-thiazol-5-yl)-pyrimidin-2-ylamino]-phenol] |  |  |  |  |  |  |  |  |  |  | 3.4 | 0.048 | 0.63 | 2.6 | particularly effective anti-viral agents | 2.7 | 0.27 | TI (therapeutic index: TC50/IC50) [12]: 4.3 |
| Cc1nc(N)sc1-c1ccnc(Nc2cccc(O)c2)n1 [Compound 116, 3-[4-(2-Amino-4-methyl-thiazol-5-yl)-pyrimidin-2-ylamino]-phenol] | 0.11 | 0.18 | 0.46 | 0.99 | 53 | 7.7 | 15 | 33 | 29 | 0.58 |  |  |  |  |  |  |  | IC50 ([5]; Table 2): 0.13 µM |
| Cc1nc(C)c(-c2ccnc(Nc3ccc(F)cc3F)n2)s1 [Compound 9, (2,4-Difluoro-phenyl)-[4-(2,4-dimethyl-thiazol-5-yl)-pyrimidin-2-yl]-amine] | 6.3 |  | > 50 |  | > 50 | > 50 | 55 | 40 | 40 | 38 |  |  |  |  |  |  |  | IC50 ([3]; Table 3): > 50 µM |
| COc1ccc(Nc2nccc(-c3sc(C)nc3C)n2)cc1OC [Compound 125, (3,4-Dimethoxy-phenyl)-[4-(2,4-dimethyl-thiazol-5-yl)-pyrimidin-2-yl]-amine] |  | 0.26 |  |  |  |  |  |  |  | 0.25 | 5.9 | 0.59 | 0.82 | 0.97 | particularly effective anti-viral agents | 27 | 0.033 | IC50 ([3]; Table 3): 1.1 µM; TI (therapeutic index: TC50/IC50) [12]: 33 |
